Test [1] addresses T1, H3 receptor (Cavia porcellus, UniProt Q9JI35).
T1 construct: The source of the H3 receptors in this experiment was guinea pig brain; from tissue; host or cells: guinea pig brain membranes
The experiment in a line: H3 Receptor Binding Assay. As to conditions: for inhibition at 2 µg/mL: pH 7.5, read-out: Inhibition of binding of radioactive ligand, Inhibition (%) at 2 μg/ml. Further details: species or system guinea pig. The method, then:
The source of the H3 receptors in this experiment was guinea pig brain. The animals weighed 400-600 g. The brain tissue was homogenized using a Polytron in a solution of 50 mM Tris, pH 7.5. The final concentration of tissue in the homogenization buffer was 10% w/v. The homogenates were centrifuged at 1,000× g for 10 min. in order to remove clumps of tissue and debris. The resulting supernatants were then centrifuged at 50,000× g for 20 min. in order to sediment the membranes, which were next washed three times in homogenization buffer (50,000× g for 20 min. each). The membranes were frozen and stored at -70° C. until needed.
All compounds to be tested were dissolved in DMSO and then diluted into the binding buffer (50 mM Tris, pH 7.5) such that the final concentration was 2 μg/mL with 0.1% DMSO. Membranes were then added (400 μg of protein) to the reaction tubes. The reaction was started by the addition of 3 nM [^3 H]R-α-methylhistamine (8.8 Ci/mmol) or 3 nM [^3 H]N^α -methylhistamine (80 Ci/mmol) and continued under incubation at 30° C. for 30 min. Bound ligand was separated from unbound ligand by filtration, and the amount of radioactive ligand bound to the membranes was quantitated by liquid scintillation spectrometry. All incubations were performed in duplicate and the standard error was always less than 10%. Compounds that inhibited more than 70% of the specific binding of radioactive ligand to the receptor were serially diluted to determine a Ki (μM).

Test [2] has as its system H3 receptors. The note with it: rat; cited from earlier work.
Test [3] relates to histamine H3 receptor. The note with it: mice, cited from earlier work.
[4] abbreviates: guinea pig brain membranes, 3 nM [^3 H]R-α-methylhistamine or 3 nM [^3 H]N^α -methylhistamine, 30° C., 30 min, pH 7.5, read-out: Ki.

Like-named read-outs stand apart in the source and are kept apart here.

T1 sequence (Q9JI35 whole entry): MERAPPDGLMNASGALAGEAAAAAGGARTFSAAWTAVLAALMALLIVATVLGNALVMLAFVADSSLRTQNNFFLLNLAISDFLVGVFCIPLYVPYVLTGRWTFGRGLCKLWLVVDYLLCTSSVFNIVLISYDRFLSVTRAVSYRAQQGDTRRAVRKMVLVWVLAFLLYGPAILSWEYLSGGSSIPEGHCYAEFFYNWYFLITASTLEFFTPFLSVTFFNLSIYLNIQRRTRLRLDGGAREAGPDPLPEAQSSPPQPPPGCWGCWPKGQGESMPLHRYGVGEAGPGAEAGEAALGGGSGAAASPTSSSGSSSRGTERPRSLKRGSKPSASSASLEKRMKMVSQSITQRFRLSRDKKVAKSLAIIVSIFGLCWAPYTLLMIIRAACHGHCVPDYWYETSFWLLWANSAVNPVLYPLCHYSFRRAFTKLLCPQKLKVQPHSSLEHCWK

For orientation: Ki means the dissociation constant of the complex between target and ligand, obtained from inhibition or displacement. Compound `N=C(NCc1ccc(Cl)cc1)c1ccc(Cc2c[nH]cn2)cc1` [Compound 6, N-[(4-Chlorophenyl)methyl]-4-[(1H-imidazol-4-yl)methyl]benzene methanimidamide] yielded an inhibition constant Ki in test [1] of 14 nM.

Consider `COc1ccc(C/N=C(\N)c2ccc(Cc3c[nH]cn3)cc2)cc1` [Compound 6a, N-[(4-Methoxyphenyl)methyl]-4-[(1H-imidazol-4-yl)methyl]benzene methanimidamide], for which, in test [1], affinity was put at a Ki of 560 nM.

As for `N=C(NCc1ccc(C(F)(F)F)cc1)c1ccc(Cc2c[nH]cn2)cc1` [Compound 6b, N-[(4-trifluoromethylphenyl)methyl]-4-[(1H-imidazol-4-yl)methyl]benzenemethanimidamide], the inhibitory constant (Ki) in test [1] (setting [4]) came to 140 nM.

Consider `N=C(NCc1ccncc1)c1ccc(Cc2c[nH]cn2)cc1` [Compound 6c, N-[(4-Pyridyl)methyl]-4-[(1H-imidazol-4-yl)methyl]benzene methanimidamide], for which the inhibition at 2 µg/mL in test [1] came out at 48%.

Consider `N=C(NCCc1ccccc1)c1ccc(Cc2c[nH]cn2)cc1` [Compound 6d, N-(2-Phenylethyl)-4-[(1H-imidazol-4-yl)methyl]benzene methanimidamide], for which the Ki in test [1] (setting [4]) amounted to 450 nM.

As to `N=C(N)c1ccc(Cc2c[nH]cn2)cc1` [Compound 9, 4-[(1H-Imidazol-4-yl)methyl]benzene methanimidamide], the Ki in test [1] (setting [4]) is 38 nM.

With `N=C(N)c1cccc(Cc2c[nH]cn2)c1` [Compound 10, 3-[(1H-Imidazol-4-yl)methyl]benzene methanimidamide], the Ki in test [1] (setting [4]) worked out at 310 nM.

In the case of `N=C(N)c1cccc(CCc2c[nH]cn2)c1` [Compound 16, 3-[(1H-Imidazol-4-yl)ethyl]benzene methanimidamide], the Ki in test [1] (setting [4]) was 220 nM.

Consider `N=C(N)c1ccc(CCc2cnc[nH]2)cc1` [Compound 17, 4-[(1H-Imidazol-4-yl)ethyl]benzene methanimidamide], for which, in test [1] (setting [4]), the inhibition constant Ki was 170 nM.

For the compound `NCc1ccc(Cc2c[nH]cn2)cc1` [Compound 21, 4-[(1H-Imidazol-4-yl)methyl]benzenemethanamine], the inhibition constant (Ki) in test [1] was 78 nM.

For the compound `N=C(CCc1ccc(Cc2cnc[nH]2)cc1)NCc1ccc(Cl)cc1` [Compound 27, N-[(4-Chlorophenyl)methyl]-4-[(1H-imidazol-4-yl)methyl]benzene propanimidamide], the inhibitory constant (Ki) in test [1] is 180 nM.

On to `N=C(Cc1ccc(Cc2c[nH]cn2)cc1)NCc1ccc(Cl)cc1` [Compound 29, N-[(4-Chlorophenyl)methyl]-4-[(1H-imidazol-4-yl)methyl]benzene ethanimidamide], for which the Ki in test [1] (setting [4]) amounted to 7.2 nM.

Consider `O=C(NCc1ccc(Cl)cc1)c1ccc(Cc2c[nH]cn2)cc1` [Compound 33, N-[(4-Chlorophenyl)methyl]-4-(1H-imidazol-4-ylmethyl)benzamide], for which the inhibition at 2 µg/mL in test [1] is 61%.

As to `Clc1ccc(COCc2ccc(Cc3c[nH]cn3)cc2)cc1` [Compound 36, 4-[[4-[[(4-Chlorophenyl)methoxy]methyl]phenyl]methyl]-1H-imidazole], the inhibition at 2 µg/mL in test [1] fell in the range of 6 to 87%.

In the case of `O=C(Nc1ccc(Cl)cc1)OCc1ccc(Cc2c[nH]cn2)cc1` [Compound 38, [4-(1H-Imidazol-4-ylmethyl)phenyl]methyl N-(4-chlorophenyl)carbamate], the Ki in test [1] stood at 24 nM.

`O=C(OCc1ccc(Cc2c[nH]cn2)cc1)c1ccc(Cl)cc1` [Compound 40, [4-(1H-Imidazol-4-ylmethyl)phenyl]methyl 4-chlorobenzoate]: the inhibition at 2 µg/mL in test [1] is 10%.

On to `O=C(OCc1ccc(Cl)cc1)c1ccc(Cc2c[nH]cn2)cc1` [Compound 43, (4-Chlorophenyl)methyl 4-(1H-imidazol-4-ylmethyl)benzoate], for which, in test [1], the inhibition at 2 µg/mL fell in the range of 16 to 78%.

On to `S=C(NC1CCCCC1)N1CCC(c2cnc[nH]2)CC1` [thioperamide], for which the “short-term memory and reversal learning” value in test [2] was “can improve short-term memory and reversal learning”. In addition, the “duration of each phase of convulsion” value in test [3] (electrically induced convulsions) was “decreased the duration of each phase of convulsion”. In addition, the electroconvulsive threshold entry in test [3] is “raised the electroconvulsive threshold”.

The values above are taken from patent US5578616A, “Phenyl-alkyl-imidazoles” (Schering Corporation, priority 1995, dated 1996).
